According to patent US9289490B2, “Combinations and uses thereof” (MORPHOSYS AG, priority 2010, dated 2016):
Values joined by “and” are separate entries in the source; they are usually repeats but may differ in a detail not shown here. Identical values can stand only once.

Assays:
[1] = system: RPMI-8226 cells; experiment: Cell proliferation, XTT-based assay; settings: Homo sapiens, bortezomib alone, read-out: IC50 (inhibition of cell proliferation)
Procedure: (§1) Increasing amounts of Bortezomib (Velcade®, Lot: No.: #9AZSY00) were applied to AMO-1, LP-1, NCI-H929 and RPMI-8226 cells and incubated for 24 h, 48 h and 72 h. After incubation, period plates were analyzed for cell proliferation in a quantitative colorimietric XTT-based assay using the cell proliferation kit II (ROCHE, Cell Proliferation Kit II, Cat. No.: 11465015001). For subsequent measurement, plates were subjected to Tecan Genios Reader and absorbance at 492 nm was detected.

[2] = system: NCI-H929 cells; experiment: ADCC with human PBMCs, flow cytometry (CalceinAM/PI); settings: NCI-H929 target cells treated with bortezomib before MOR202 15 μg/ml; FIG. 9
Procedure: PBMC's were isolated by density gradient centrifugation of freshly isolated human blood. Isolated blood from different donors were layered on a defined volume of Biocoll (Biochrome AG; CAT No.:L6115; LOT No.:1050T) in a Falcon tube and centrifuged at 380 g. The PBMCs were isolated and supplemented with RPMI medium.
Cell suspensions were further incubated for 4 h at 37° C. To detect dead AMO-1 cells, cell suspensions were challenged with propidium iodide (PI) and subsequently analyzed in flow cytometry. Target cells were separated via gating of CalceinAM positive cell populations, and cells killed via ADCC were quantified.
Single and combination doses of 5 μM LEN and 15 μg/ml of MOR03207 and 0.2 or 0.07 μg/ml MOR202 were used.
Single and combination doses of 5 μM LEN and 15 μg/ml of MOR03207 and 0.2* or 0.07 μg/m MOR202 were used.

[3] = system: AMO-1 cells; experiment: Cell proliferation, XTT-based assay; design: species or system human; settings: Homo sapiens, AMO1, bortezomib alone, XTT, read-out: IC50 (inhibition of cell proliferation)
Procedure: (§2) Cells were collected and distributed in 96-well plates with 5000 cells per well.
(§3) After incubation, plates were analyzed for cell proliferation in a quantitative colorimietric XTT-based assay using the cell proliferation kit II (ROCHE, Cell Proliferation Kit II, Cat. No.: 11465015001). For subsequent measurement plates were subjected to Tecan Genios Reader and absorbance at 492 nm was detected.
as §1

[4] = system: NCI-H929 cells; experiment: Cell proliferation, XTT-based assay; settings: Homo sapiens, NCI-H929, read-out: IC50 (inhibition of cell proliferation)
Procedure: as §2, §3, §1

[5] = system: LP-1 cells; experiment: ADCC with human PBMCs, flow cytometry (CalceinAM/PI); format: cell-based; settings: LP-1 target cells treated with bortezomib before MOR202 15 μg/ml; FIG. 10
Procedure: Using the methods described in Example 4, the ADCC effect of combining bortezomib and MOR202 was analyzed. Here, the target cells were treated with bortezomib prior to the treatment with MOR202. Both target cells. NCI-H929 and LP-1 cells were tested.

[6] = system: LP-1 cells; experiment: Cell proliferation, XTT-based assay; settings: Homo sapiens, bortezomib alone, read-out: IC50 (inhibition of cell proliferation)
Procedure: as §1

[7] = system: NCI-H929 MM cells; experiment: NCI-H929 bone lysis SCID mouse model, MOR202 and BOR (MicroCT); format: in vivo, SCID mice
Text: 63 SCID mice were inoculated on Day (−7) intra-tibially with 2.5×10^6 NCI-H929 MM cells in order to induce bone lysis. Bortezomib (Groups A and AB) and Vehicle Control (Group C) treatments started on Day (−1). MOR202 treatments (Groups B and AB) started on Day 0. Treatment continued for 6 weeks.
MicroCT Scan was used to assess bone lysis and included a 3-dimensional analysis comprising Total Bone Volume (TBV), Trabecular Bone Volume (Tb.BV), Trabecular Pattern Factor (Tb.Pf) and Structure Model Index (SMI). Table 10 above defines each of these parameters.

[8] = system: RAMOS cells; settings: BOR 0.6 mg/kg i.p., MOR202 1 mg/kg i.v.
Procedure: Fifty-five female SCID mice were pre-treated with Cyclophosphamide (75 mg/kg, i.p., twice daily) for two days prior to RAMOS cell inoculation (Day −5 and −4). On the day of inoculation (Day −3), all fifty-five mice were inoculated with 1×10^6 RAMOS cells each (in 100 μL) intravenously into the tail vein. Forty-eight of the mice were randomised by body weight into six groups of eight.
The study continued for 98 days and the measured endpoint was survival.

[9] = Bortezomib 0.6 mg/kg i.p. twice per week, MOR202 3 mg/kg i.p. three times per week, 6 weeks, lower = less bone lysis
[10] = group average of 10 mice, Bortezomib 0.6 mg/kg i.p., MOR202 3 mg/kg i.p., 6 weeks

CC(C)C[C@H](NC(=O)[C@H](Cc1ccccc1)NC(=O)c1cnccn1)B(O)O [bortezomib]
IC50 [1]: 9 nM | Enhancement of MOR202 ADCC activity by bortezomib (in words) [2]: enhancement in MOR202 activity | IC50 [3]: 3.9 nM | IC50 [4]: 3.3 nM | Enhancement of MOR202 ADCC activity by bortezomib (in words) [5]: enhancement in MOR202 activity | IC50 [6]: 6.1 nM | Structure Model Index (SMI), individual mouse [7, 9]: 2.443 and 2.374 and 2.156 and 2.262 and 2.700 and 2.981 and 3.007 and 2.553 and 2.337 and 2.273 | Trabecular Pattern Factor (Tb · Pf), individual mouse [7, 9]: 25.893 mm^−1 and 26.044 mm^−1 and 16.877 mm^−1 and 23.179 mm^−1 and 32.463 mm^−1 and 33.152 mm^−1 and 34.609 mm^−1 and 31.813 mm^−1 and 27.147 mm^−1 and 23.582 mm^−1 | Structure Model Index (SMI), Average [7, 10]: 2.509 | Trabecular Pattern Factor (Tb · Pf), Average [7, 10]: 27.476 mm^−1 | Reduction of bone lysis compared to vehicle control ([7]; non-inoculated tibia = 0%, vehicle = 100% bone lysis, MOR202 alone 12 mg/kg, BOR alone 0.6 mg/kg, combination 3 mg/kg MOR202 and 0.6 mg/kg BOR): 40% | Number of mice alive at study termination (day 98) [8]: 0/8 | Day of death (post-inoculation) Mean ([8]; study 98 days): 19.1 days | Day of death (post-inoculation) Median ([8]; study 98 days): 19 days | % ILS (based on median death day) ([8]; vs vehicle control): −7%
